Results: patent US11712446B2, “Methods of mobilizing marrow infiltrating lymphocytes and uses thereof” (GLYCOMIMETICS, INC., priority 2017, dated 2023)

Assays:
Type in all cases: in vivo, BALB/c mice
[1] = tested on: CD8+ T-cells in peripheral blood; test: Percent of CD8+ lymphocytes in peripheral blood armed to produce IFNγ; conditions: CT26 immune mice; GMI compounds 40 mg/kg IP, G-CSF 0.125 mg/kg SC, every 12 hours for 3 days; 12 hours after final dose; FIG. 3
Description: (§1) Protocol for Detection and Mobilization of MILs in the CT-26 tumor model: GMI-1271 is a potent, small-molecule, glycomimetic antagonist of E-selectin. GMI-1359 is a potent, small-molecule glycomimetic dual antagonist, targeting E-selectin and CXCR4. The effects of inhibiting either E-selectin with GMI-1271 or E-selectin and CXCR4 with GMI-1359 on MIL mobilization was tested in BALB/c mice that had been induced to reject the syngeneic CT26 colon carcinoma via anti-CTLA-4 T cell checkpoint antibody.
(§2) Treatment for “Tumor Immune” groups 1-4 began on Day 25. The Vehicle was dosed intraperitoneally every 12 hours for 3 days (Days 25-27). GMI-1271 and GMI-1359 were dosed intraperitoneally at 40 mg/kg every 12 hours for 3 days (Days 25-27). G-CSF was dosed at 0.125 mg/kg subcutaneously every 12 hours for 3 days (Days 25-27).
(§3) At 12 hours after the final dose of test agents, all mice in groups 1-5 (treatment “Tumor Immune” groups 1-4 and control “Nonimmune” group 5) were euthanized for blood and bone marrow collection.
(§4) Flow cytometric analysis was used to determine CD62L and CD44 expression on CD8+ T cells in whole blood and bone marrow samples. Secondary analysis included AH-1 Dextramer analysis on the three tissue types and IFNγ production in pooled blood and bone marrow samples. Samples were acquired using a 4 laser, 14 color Attune NxT Flow Cytometer with autosampler. […]

CD8+ MILs = test: IFNγ production by bone marrow CD8+ MILs following in vitro stimulation with irradiated CT-26 tumor cells or AH1; conditions: tumor immunized mice, 40 mg/kg IP every 12 hours for 3 days, FIG. 2
Description: as §1, §2, §3, §4

CD8+ T cells = test: Flow cytometric CD62L/CD44 phenotype of CD8+ T cells in peripheral blood and bone marrow of CT26 immune mice (MIL mobilization); conditions: 12 hours after final dose
Description: as §1
Treatment with anti-CTLA-4 for all mice implanted with CT26.WT began on Day 3. All mice were dosed intraperitoneally on Days 3, 6, 10, 13, and 17. All mice were dosed according to individual body weight on the day of treatment (0.2 mg/20 g).
On Day 25, mice without tumors following CTLA-4 treatment were distributed into the four “Tumor Immune” treatment groups indicated in Table 1 such that the mean body weight within each group was within 10% of the overall mean.
as §2
A “Nonimmune” group 5 was populated with age-matched, naive non-tumor bearing mice.
as §3
Flow cytometric analysis was used to determine CD62L and CD44 expression on CD8+ T cells in whole blood and bone marrow samples. Secondary analysis included AH-1 Dextramer analysis on the three tissue types and IFNγ production in pooled blood and bone marrow samples. Samples were acquired using a 4 laser, 14 color Attune NxT Flow Cytometer with autosampler. CD62L and CD44 events were gated on CDS+ T cells.

CC[C@H]1C[C@@H](C(=O)NCCNC(=O)CCOCCOCCOCCOCCOCCOCCOCCOCCOCCOCCOCCOC)C[C@@H](O[C@@H]2O[C@H](CO)[C@H](O)[C@H](O[C@@H](CC3CCCCC3)C(=O)[O-])[C@H]2NC(C)=O)[C@@H]1O[C@@H]1O[C@@H](C)[C@@H](O)[C@@H](O)[C@@H]1O.[Na+] [GMI-1271]
percentage of CD8+ T-cells in peripheral blood primed to produce IFNγ [1]: markedly increased | functional activity of bone marrow CD8+ MILs (IFNγ production) after in vitro stimulation (CD8+ MILs): primed to respond to both AH1 and whole tumor cells | redistribution of effector memory (EM, CD62L-CD44+) CD8+ T cells (CD8+ T cells; 40 mg/kg IP every 12 hours for 3 days, FIG. 1C): not effected | mobilization of naïve (CD62L+CD44−) CD8+ T cells into the peripheral blood (CD8+ T cells; GMI compounds 40 mg/kg IP, G-CSF 0.125 mg/kg SC, every 12 hours for 3 days, FIG. 1A): mobilized | mobilization of central memory (CM, CD62L+CD44+) CD8+ T cells into the peripheral blood (CD8+ T cells; GMI compounds 40 mg/kg IP, G-CSF 0.125 mg/kg SC, every 12 hours for 3 days, FIG. 1B): mobilized
